Reference: patent publication US20210220301A1, “Pharmaceutical or Nutritional Combination Comprising Beta-Hydroxy-Betamethylbutyrate” (Abbott Laboratories, priority 2016, published 2021)

How the values were obtained:
lean body mass = settings: humans; Deutz et al., Clin Nutr. 2013; cited from earlier work
[1] = system: rats subjected to dexamethasone-induced muscle loss; experiment: Dexamethasone-induced muscle loss in rats: soleus muscle mass after 21 days; format: in vivo, Sprague-Dawley rats; settings: 200 mg/kg/day white curcumin alone, co-administered with 0.1 mg/kg/day dexamethasone i.p., day 21, FIG. 1, t-test P<0.05
Protocol: A study was carried out to investigate the effect of a composition comprising HMB and white curcumin (THC) in a well-established animal model for human muscle loss (β-Hydroxy-β-methylbutyrate (HMB) normalizes dexamethasone-induced autophagy-lysosomal pathway in skeletal muscle. Giron M D, Vilchez J D, Shreeram S, Salto R, Manzano M, Cabrera E, Campos N, Edens N K, Rueda R, Lopez-Pedrosa J M. PLoS One. 2015 Feb. 6; 10(2):e0117520. doi: 10.1371/journal.pone.0117520. eCollection 2015).
Experimental design—Male Sprague-Dawley rats (8-10 weeks old) (n=42) having a body weight of 270-310 g were randomly assigned to seven experimental groups (six rats per group). Groups 1-6 were administered 0.1 mg/kg/day dexamethasone (a synthetic glucocorticoid) by intraperitoneal injection for 21 days to induce muscle loss. The dexamethasone was administered at 2 mL/kg of 1.75 mg dexamethasone in 35 mL saline. Group 7 (a sham control) was administered saline without the dexamethasone.
Group 1 (a pathological control) was administered the 0.1 mg/kg/day dexamethasone alone. […]
The body weight of each rat was measured daily. On day 21 the soleus and rectus femoris muscles from each rat were collected and weighed and the lean mass of each rat was recorded. The fore limb and hind limb grip strengths were also measured. […]

SMILES	minimum dose of HMB at which benefits (preserving lean body mass and muscle strength) occur (lean body mass)	soleus muscle mass relative to the pathological control [1]
CC(C)(O)CC(=O)O [HMB, 3-hydroxy-3-methylbutanoic acid]	50 mg/kg/day	
COc1cc(CCC(=O)CC(=O)CCc2ccc(O)c(OC)c2)ccc1O [white curcumin, 1,7-bis(4-hydroxy-3-methoxyphenyl)heptane-3,5-dione]		did not have a significant effect
